Values after ≈ are worked out from the molar mass of the structure shown. Where two headings read alike, the source gives them in different places.
Legend:
[1] = test system: CD86 expression of MUTZ-3 cells; assay: CD86 cell surface expression of MUTZ-3 cells following chemical stimulation, flow cytometry; format: cell-based, human; conditions: 24 h stimulation at GARD input concentration; students t-test, p<0.05
[2] = Max solubility of chemicals in cell media (establishment of GARD input concentration); conditions: for Max solubility: dissolved in vehicle (water or DMSO); for solubility: aqueous buffer, kinetic from dmso stock
MUTZ-3 cells = assay: Chemical cytotoxicity, concentration yielding 90% relative viability (Rv90), propidium iodide staining
Excerpt: A panel of 32 reference chemicals comprising a selection of 10 well characterized respiratory sensitizers and 22 non-respiratory sensitizers, collectively termed the training dataset, were used for cell stimulations in order to establish the predictive genomic biomarker signature. […] Additionally, a panel of 25 chemicals, including 6 respiratory sensitizers and 19 non-respiratory sensitizers, collectively termed the independent test dataset, were used for cell stimulations in order to form an independent testset for validation of the identified predictive genomic biomarker signature. The […] comprised both control chemicals, included during the training of the model, as well as chemicals previously unseen during training of the model. […] All chemicals were purchased from Sigma-Aldrich (St. Louis, MO, USA). Chemicals were dissolved and diluted into GARD input concentration in either water or DMSO prior to stimulation of cells. For chemicals dissolved in DMSO, the in-well concentration of DMSO was 0.1%. Monitoring of chemical cytotoxicity and establishment of GARD input concentration for each chemical compound was performed as previously described. […] Toxic compounds were used at a concentration yielding 90% relative viability (Rv90). The criterion that was first met determined the GARD input concentration for each compound.
(§1) The human acute myelomonocytic leukemia cell line MUTZ-3[68, 69] was obtained from Leibniz-Institut DSMZ-Deutsche Sammlung von Mikroorganismen und Zellkulturen (DSMZ, Braunschweig, Germany). Maintenance of cells, chemical stimulation of MUTZ-3 and all subsequent isolation of mRNA and preparation of cDNA were performed as previously described. In short, a phenotypic control of MUTZ-3 was performed using flow cytometry prior to chemical stimulation to ensure cells were in an immature state. The following FITC-conjugated mouse monoclonal antibodies (mAbs) were used: CD1a (DakoCytomation, Glostrup, Denmark), CD34, CD86, HLA-DR, IgG1 (BD Biosciences, Franklin Lakes, NJ). The following PE-conjugated mouse monoclonal antibodies were used: CD14 (DakoCytomation), CD54, CD80, IgG1 (BD Biosciences). Cell viability was determined using Propidium Iodide (BD Biosciences) staining. Samples were run on FACSCanto II instrument. Data was acquired using FACS Diva software (BD Biosciences) and analyzed using FCS Express V4 (De Novo Software, Los Angeles, CA). Gating was performed to exclude cell debris and non-viable cells based on forward- and side-scattering properties and quadrants established using isotype-controls. During chemical exposure, cells were seeded at 200.000 cells/ml in 24-well plates and exposed to chemical compound at the GARD input concentration. Stimulated cells were harvested after 24h incubation at 37 °C, 5% CO2 and RNA was isolated with TRIzol reagent (Life Technologies, Carlsbad, CA) using standardized protocols provided by the manufacturer. In parallel, a control of the maturity state of the cells was performed by flow cytometric analysis of CD86. Preparation of cDNA and hybridization, washing and scanning of the Human Gene 1.0 ST Arrays (Affymetrix, Santa Clara, CA, USA) was performed, according to standardized protocols provided by the manufacturer (Affymetrix).

physchem = conditions: aqueous buffer, kinetic from dmso stock
[3] = test system: GRPS genomic biomarker signature (389 transcripts) in MUTZ-3 cells; assay: GARD assay with GARD Respiratory Prediction Signature (GRPS), SVM classification of respiratory sensitizers; conditions: for SVM decision value 1: replicate stimulation 1; for SVM decision value 1 / SVM decision value 3 / SVM decision value 2: 24 h at GARD input concentration, independent test dataset, > 0 = respiratory sensitizer; for SVM decision value 3: replicate stimulation 3; for Classification, Pos if 1 sample > 0: respiratory sensitizer if any of replicate stimulations has SVM decision value > 0; for SVM decision value 2: replicate stimulation 2
Description: as §1
Gene expression data obtained from the Human Gene 1.0 ST Arrays were normalized using the Single-Channel array normalization (SCAN) algorithm, and potential batch effects between different set of experiments were adjusted using the ComBat empirical bayes method. Normalizations and batch adjustments were performed in R statistical software using the open software Bioconductor v2.14 [73] with the additional software packages SCAN.UPC [70] and sva. Normalized data was imported into Qlucore Omics Explorer 3.0 (Qlucore AB, Lund, Sweden) and visualized using Principal Component Analysis (PCA). Predictors were selected from a one-way ANOVA p-value filtration, using false discovery rate (FDR) to adjust for multiple hypothesis testing, comparing respiratory sensitizers and non-respiratory sensitizers. […] The Backward Elimination algorithm was modified to minimize the Kullback-Leibler error [53] rather than maximizing the Area Under the Receiver Operating Characteristic (AUC ROC), in order to enable signature optimization in cases where the AUC ROC reaches 1.0. […] The script for Backwards Elimination was programmed in R, with the additional package e1071 [78]. The method by which the predictive genomic biomarker signature was established was validated using cross-validation based on Support Vector Machines (SVM), based on a linear kernel, as described previously. In short, the training dataset was randomly divided into a new cross-validation training dataset comprising 70% of the stimulations, and a cross-validation test dataset comprising 30% of the stimulations. In addition, care was taken to maintain the same proportion between respiratory sensitizers and non-respiratory sensitizers as in the complete training dataset. A new predictive genomic biomarker signature was identified from the cross-validation training dataset using one-way ANOVA p-value filtration as described above.

[4] = test system: GPS genomic biomarker signature (200 genes) in MUTZ-3 cells
Description: The GARD assay is based on measurements of transcriptional levels of a genomic biomarker signature (GARD Prediction Signature, or GPS) comprising 200 genes in the myeloid human cell line MUTZ-3 [43–45] using transcriptome-wide DNA microarray technology.
The human acute myelomonocytic leukemia cell line MUTZ-3[68, 69] was obtained from Leibniz-Institut DSMZ-Deutsche Sammlung von Mikroorganismen und Zellkulturen (DSMZ, Braunschweig, Germany). Maintenance of cells, chemical stimulation of MUTZ-3 and all subsequent isolation of mRNA and preparation of cDNA were performed as previously described [41, 42]. In short, a phenotypic control of MUTZ-3 was performed using flow cytometry prior to chemical stimulation to ensure cells were in an immature state. The following FITC-conjugated mouse monoclonal antibodies (mAbs) were used: CD1a (DakoCytomation, Glostrup, Denmark), CD34, CD86, HLA-DR, IgG1 (BD Biosciences, Franklin Lakes, NJ). The following PE-conjugated mouse monoclonal antibodies were used: CD14 (DakoCytomation), CD54, CD80, IgG1 (BD Biosciences). Cell viability was determined using Propidium Iodide (BD Biosciences) staining. Samples were run on FACSCanto II instrument. Data was acquired using FACS Diva software (BD Biosciences) and analyzed using FCS Express V4 (De Novo Software, Los Angeles, CA). […]

[5] = reference compounds of the training dataset

| SMILES | SVM decision value 1 [3] | SVM decision value 3 [3] | Classification, Pos if 1 sample > 0 [3] | SVM decision value 2 [3] | further results |
| --- | --- | --- | --- | --- | --- |
| [Cl][Pt-2]([Cl])([Cl])([Cl])([Cl])[Cl].[NH4+].[NH4+] [Ammonium hexachloroplatinate] | – | – | – | – | Up-regulation of CD86 in comparison to unstimulated cells [1]: statistically significant; Max solubility [2, 5]: 35 µM |
| O=C=Nc1ccc(Cc2ccc(N=C=O)cc2)cc1 [Methylene diphenol diisocyanate] | – | – | – | – | Max solubility [2, 5]: 50 µM |
| O=CCCCC=O [Glutaraldehyde] | – | – | – | – | Up-regulation of CD86 in comparison to unstimulated cells [1]: statistically significant; Rv90 (MUTZ-3 cells; concentration yielding 90% relative viability, MUTZ-3, training dataset): 10 µM |
| O=C=NCCCCCCN=C=O [Hexamethylen diisocyanate] | – | – | – | – | solubility (physchem): 100 µM (≈ 16.8 µg/mL) |
| O=C(O)c1ccc2c(c1)C(=O)OC2=O [Trimellitic anhydride] | – | – | – | – | solubility [2]: 150 µM (≈ 28.8 µg/mL) |
| OCC=Cc1ccccc1 [Cinnamyl alcohol] | −0.57 | −1.26 | Non-sensitizer | – | solubility [2]: 500 µM (≈ 67.1 µg/mL) |
| Nc1ccccc1O [2-Aminophenol] | – | – | – | – | Up-regulation of CD86 in comparison to unstimulated cells [1]: up-regulation of CD86 was also observed; Rv90 (MUTZ-3 cells; human): 100 µM |
| C=CCc1ccc(O)c(OC)c1 [Eugenol] | −1.67 | −1.51 | Non-sensitizer | −1.53 | Rv90 (MUTZ-3 cells; concentration yielding 90% relative viability, MUTZ-3, independent test dataset): 300 µM |
| O=C1OC(=O)c2ccccc21 [Phtalic Anhydride] | 0.20 | – | Sensitizer | −0.12 | Max solubility ([2]; chemicals of the independent test dataset): 200 µM; Max solubility [2, 5]: 200 µM |
| C1CNCCN1 [Piperazine] | −0.05 | – | Non-sensitizer | −0.12 | GRPS prediction compared with true identity ([3]; validation using the independent dataset): false negatives; Prediction in the GARD assay (skin sensitization) [4]: accurately predicted as skin sensitizers |
| Cc1ccc(N=C=O)cc1N=C=O [Toluendiisocyanate] | – | – | – | – | solubility (physchem): 40 µM (≈ 6.97 µg/mL) |
| O=[N+]([O-])c1ccc(Cl)c([N+](=O)[O-])c1 [2,4-dinitrochlorobenzene] | −1.66 | −1.90 | Non-sensitizer | −1.18 | Rv90 (MUTZ-3 cells; human): 4 µM |
| Nc1ccc(N)cc1 [p-phenylenediamine] | −1.38 | −1.80 | Non-sensitizer | −1.19 | Rv90 (MUTZ-3 cells): 75 µM |
